Laboratory results taken from ChEMBL document CHEMBL1201862, “PubChem BioAssay data set” (2004).
Active and inactive are the calls of the source.

Columns and labels:
[1] = molecular target: T1, Streptokinase A (Streptococcus pyogenes serotype M1, UniProt P10520); assay: S. pyogenes streptokinase expression inhibitors, potency, dose response, plasminogen activation absorbance, OD405 (AID 1914); type: functional, Streptococcus pyogenes M1 GAS;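 further: secreted streptokinase activity via plasminogen activation per viability signal from cell pellet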
T1 sequence (P10520 whole entry): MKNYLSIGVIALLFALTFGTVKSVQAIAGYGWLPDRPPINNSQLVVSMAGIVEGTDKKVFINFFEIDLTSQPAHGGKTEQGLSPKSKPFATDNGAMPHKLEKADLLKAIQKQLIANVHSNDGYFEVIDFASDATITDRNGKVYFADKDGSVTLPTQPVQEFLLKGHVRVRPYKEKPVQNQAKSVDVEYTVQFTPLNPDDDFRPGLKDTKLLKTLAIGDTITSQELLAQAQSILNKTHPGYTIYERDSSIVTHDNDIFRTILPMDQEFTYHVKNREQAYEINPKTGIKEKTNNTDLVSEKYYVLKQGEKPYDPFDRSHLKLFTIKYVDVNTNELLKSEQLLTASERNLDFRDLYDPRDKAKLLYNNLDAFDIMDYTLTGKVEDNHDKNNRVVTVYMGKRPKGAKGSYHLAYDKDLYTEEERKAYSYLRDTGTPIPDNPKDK

[2] = test system: CHO; assay: cytotoxicity in TLR9-MyD88 CHO cells, dose response, cytotoxicity control for TLR9-MyD88 binding inhibitor project, cell-based, luminescence (AID 588339); type: functional, hamster; conditions: Cricetulus griseus;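 further: CHO cells stably coexpressing TLR9 and MyD88 fusions from primary screen; compound exposure lasted 48 hours before viability readout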
[3] = molecular target: ORF 73 (Human herpesvirus 8, UniProt O40947); assay: inhibitors of C-LANA binding to LBS DNA, dose response, biochemical, fluorescence polarization, cherry-picked samples (AID 504725); set-up: species or system Human gammaherpesvirus 8;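 further: fluorescence polarization of a labeled DNA duplex reporting LANA DNA binding; potency is for inhibitors that block LANA binding to the DNA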
Chain of ORF 73 (O40947 whole entry): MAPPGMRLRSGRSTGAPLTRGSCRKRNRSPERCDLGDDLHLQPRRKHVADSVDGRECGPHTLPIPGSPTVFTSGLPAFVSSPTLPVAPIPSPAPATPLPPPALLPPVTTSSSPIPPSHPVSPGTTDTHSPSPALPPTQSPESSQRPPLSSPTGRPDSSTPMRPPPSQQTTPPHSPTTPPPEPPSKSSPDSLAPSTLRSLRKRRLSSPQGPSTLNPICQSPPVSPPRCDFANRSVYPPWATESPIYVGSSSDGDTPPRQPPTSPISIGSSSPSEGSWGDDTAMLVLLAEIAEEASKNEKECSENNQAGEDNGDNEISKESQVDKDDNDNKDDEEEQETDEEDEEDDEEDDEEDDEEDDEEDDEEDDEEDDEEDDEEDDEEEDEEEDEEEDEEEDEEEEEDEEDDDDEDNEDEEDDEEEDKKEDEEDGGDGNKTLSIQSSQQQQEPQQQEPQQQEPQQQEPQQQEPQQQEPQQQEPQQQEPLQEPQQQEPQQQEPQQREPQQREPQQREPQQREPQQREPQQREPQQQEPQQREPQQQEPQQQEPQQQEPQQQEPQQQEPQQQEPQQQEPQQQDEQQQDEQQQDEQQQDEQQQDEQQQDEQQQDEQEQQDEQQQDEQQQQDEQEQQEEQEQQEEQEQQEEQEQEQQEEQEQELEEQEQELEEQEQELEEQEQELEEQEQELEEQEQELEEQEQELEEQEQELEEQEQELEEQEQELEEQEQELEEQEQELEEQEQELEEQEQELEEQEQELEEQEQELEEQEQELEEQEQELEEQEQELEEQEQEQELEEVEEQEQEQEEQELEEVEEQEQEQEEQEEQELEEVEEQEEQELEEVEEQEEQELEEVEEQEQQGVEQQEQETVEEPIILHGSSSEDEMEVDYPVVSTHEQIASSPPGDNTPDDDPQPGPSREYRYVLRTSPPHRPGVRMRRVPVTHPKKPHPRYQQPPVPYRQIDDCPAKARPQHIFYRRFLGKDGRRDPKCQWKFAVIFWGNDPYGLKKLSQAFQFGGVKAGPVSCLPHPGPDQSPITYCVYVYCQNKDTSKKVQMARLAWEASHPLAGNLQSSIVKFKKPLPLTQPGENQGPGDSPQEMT

[4] = test system: HEK293; assay: HEK cell cytotoxicity by LDH release, dose response, cytotoxicity control for IDE activator project, fluorescence, HEK cells (AID 588440); type: functional, cell-based; conditions: Homo sapiens;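 further: cytotoxicity by LDH release measuring loss of membrane integrity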
[5] = test system: Streptococcus; assay: Group A Streptococcus viability loss, dose response, counter-screen for streptokinase expression inhibitor project, luminescence, BacTiterGlo (AID 1915); type: functional, organism-based;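 further: potency for reduction of bacterial viability or growth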
[6] = molecular target: T2, Insulin-degrading enzyme (Homo sapiens, UniProt P14735); assay: activators of endogenous IDE in HEK cells, dose response, cell-based, fluorescence polarization (AID 588439); type: functional
T2 sequence (P14735 whole entry): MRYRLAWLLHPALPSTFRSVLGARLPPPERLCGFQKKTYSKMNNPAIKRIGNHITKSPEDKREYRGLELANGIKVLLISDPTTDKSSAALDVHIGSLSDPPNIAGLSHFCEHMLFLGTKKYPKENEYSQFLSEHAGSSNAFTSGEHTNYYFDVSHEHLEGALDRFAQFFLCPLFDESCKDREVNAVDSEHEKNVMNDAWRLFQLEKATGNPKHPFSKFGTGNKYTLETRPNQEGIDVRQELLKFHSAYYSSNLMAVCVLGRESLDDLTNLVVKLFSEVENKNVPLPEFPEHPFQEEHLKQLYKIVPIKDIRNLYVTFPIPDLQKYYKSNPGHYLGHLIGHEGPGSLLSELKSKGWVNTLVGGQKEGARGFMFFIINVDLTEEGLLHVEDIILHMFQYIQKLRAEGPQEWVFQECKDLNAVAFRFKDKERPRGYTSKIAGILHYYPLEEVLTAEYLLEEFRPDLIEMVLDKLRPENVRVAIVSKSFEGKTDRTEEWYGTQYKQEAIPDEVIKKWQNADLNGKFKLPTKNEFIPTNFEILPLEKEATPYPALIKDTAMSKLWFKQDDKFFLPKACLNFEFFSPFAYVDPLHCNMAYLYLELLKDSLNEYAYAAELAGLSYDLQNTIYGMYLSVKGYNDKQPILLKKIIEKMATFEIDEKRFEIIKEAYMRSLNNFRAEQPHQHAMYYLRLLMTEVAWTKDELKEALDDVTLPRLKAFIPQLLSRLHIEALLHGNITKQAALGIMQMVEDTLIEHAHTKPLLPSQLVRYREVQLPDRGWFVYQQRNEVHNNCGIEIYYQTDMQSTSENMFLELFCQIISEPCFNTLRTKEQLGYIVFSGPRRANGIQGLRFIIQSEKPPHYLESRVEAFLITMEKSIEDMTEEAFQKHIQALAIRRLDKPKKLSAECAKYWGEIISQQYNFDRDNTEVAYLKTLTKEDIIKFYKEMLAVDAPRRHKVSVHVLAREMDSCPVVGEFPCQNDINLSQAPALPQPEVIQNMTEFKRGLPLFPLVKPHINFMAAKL

[7] = test system: HEK293; assay: optical interference in Abeta FP readout, dose response, artefact control for IDE activator project, biochemical, fluorescence polarization (AID 588442); type: functional, cell-based; conditions: Homo sapiens
[8] = molecular target: Beta-lactamase (Pseudomonas aeruginosa, UniProt Q79MP6);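 further: biochemical dose-response test of metallo-beta-lactamase enzyme inhibition, read out by epi-absorbance; purified recombinant IMP-1 metallo-beta-lactamase with nitrocefin as substrate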
Chain of Beta-lactamase (Pseudomonas aeruginosa, UniProt Q79MP6) (Q79MP6 whole entry): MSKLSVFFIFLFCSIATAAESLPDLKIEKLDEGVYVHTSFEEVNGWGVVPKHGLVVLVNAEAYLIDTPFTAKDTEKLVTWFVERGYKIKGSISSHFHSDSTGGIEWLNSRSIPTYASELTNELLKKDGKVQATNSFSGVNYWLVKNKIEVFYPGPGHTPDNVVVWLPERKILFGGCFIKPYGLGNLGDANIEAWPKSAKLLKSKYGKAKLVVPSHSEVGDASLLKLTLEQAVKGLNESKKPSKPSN

[9] = test system: Streptococcus sp. 'group A'; assay: growth inhibition of control SK(-) GAS strain, dose response, counter-screen for streptokinase expression inhibitor project, luminescence, kanamycin, BacTiterGlo, confirmation (AID 1900); type: functional, organism-based
[10] = molecular target: UDP-galactopyranose mutase (Mycobacterium tuberculosis, UniProt P9WIQ1); assay: Inhibitors of Mycobacterium tuberculosis UDP-galactopyranose mutase (UGM) enzyme Measured in Biochemical System Using Plate Reader - 2105-02_Inhibitor_Dose_CherryPick_Activity. [Related pubchem assays (depositor defined):AID504439]
Chain of UDP-galactopyranose mutase (P9WIQ1 whole entry): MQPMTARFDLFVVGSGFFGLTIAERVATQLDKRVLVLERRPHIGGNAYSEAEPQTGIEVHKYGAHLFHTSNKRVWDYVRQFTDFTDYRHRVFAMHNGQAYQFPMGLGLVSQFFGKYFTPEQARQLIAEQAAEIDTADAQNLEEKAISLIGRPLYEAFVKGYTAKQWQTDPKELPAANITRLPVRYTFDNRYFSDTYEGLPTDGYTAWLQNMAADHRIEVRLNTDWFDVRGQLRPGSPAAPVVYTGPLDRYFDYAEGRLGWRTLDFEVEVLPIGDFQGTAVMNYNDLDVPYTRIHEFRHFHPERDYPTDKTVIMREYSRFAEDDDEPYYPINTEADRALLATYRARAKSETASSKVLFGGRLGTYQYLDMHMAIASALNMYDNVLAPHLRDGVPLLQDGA

[11] = molecular target: T3, Beta Lactamase (Pseudomonas aeruginosa, UniProt Q932Y6);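 further: confirmatory high-throughput screen measuring VIM-2 metallo-beta-lactamase inhibition by epi-absorbance in dose response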
T3 sequence (Q932Y6 whole entry): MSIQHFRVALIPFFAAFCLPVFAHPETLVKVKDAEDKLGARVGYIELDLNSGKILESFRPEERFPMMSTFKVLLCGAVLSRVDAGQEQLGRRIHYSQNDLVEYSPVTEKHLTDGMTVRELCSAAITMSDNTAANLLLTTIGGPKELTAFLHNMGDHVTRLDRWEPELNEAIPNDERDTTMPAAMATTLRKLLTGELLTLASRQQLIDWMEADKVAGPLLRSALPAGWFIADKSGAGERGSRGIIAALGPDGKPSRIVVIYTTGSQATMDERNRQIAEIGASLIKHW

[12] = molecular target: Beta-lactamase (Salmonella choleraesuis (strain SC-B67), UniProt Q5J463)
Chain of Beta-lactamase (Salmonella choleraesuis (strain SC-B67), UniProt Q5J463) (Q5J463 whole entry): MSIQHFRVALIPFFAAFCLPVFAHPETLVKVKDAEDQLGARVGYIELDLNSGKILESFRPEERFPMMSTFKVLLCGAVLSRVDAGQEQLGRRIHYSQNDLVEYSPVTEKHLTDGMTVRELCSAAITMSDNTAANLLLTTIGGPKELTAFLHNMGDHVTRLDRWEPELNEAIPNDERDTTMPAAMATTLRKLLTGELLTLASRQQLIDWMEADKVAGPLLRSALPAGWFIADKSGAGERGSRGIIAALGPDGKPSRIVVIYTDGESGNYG

[13] = molecular target: Keap1/Nrf2 (Homo sapiens, UniProt Q14145); assay: Keap1-Nrf2 protein-protein interaction inhibitors, dose response, biochemical, fluorescence polarization, cherry-picked samples (AID 588683)
Chain of Keap1/Nrf2 (Q16236 whole entry): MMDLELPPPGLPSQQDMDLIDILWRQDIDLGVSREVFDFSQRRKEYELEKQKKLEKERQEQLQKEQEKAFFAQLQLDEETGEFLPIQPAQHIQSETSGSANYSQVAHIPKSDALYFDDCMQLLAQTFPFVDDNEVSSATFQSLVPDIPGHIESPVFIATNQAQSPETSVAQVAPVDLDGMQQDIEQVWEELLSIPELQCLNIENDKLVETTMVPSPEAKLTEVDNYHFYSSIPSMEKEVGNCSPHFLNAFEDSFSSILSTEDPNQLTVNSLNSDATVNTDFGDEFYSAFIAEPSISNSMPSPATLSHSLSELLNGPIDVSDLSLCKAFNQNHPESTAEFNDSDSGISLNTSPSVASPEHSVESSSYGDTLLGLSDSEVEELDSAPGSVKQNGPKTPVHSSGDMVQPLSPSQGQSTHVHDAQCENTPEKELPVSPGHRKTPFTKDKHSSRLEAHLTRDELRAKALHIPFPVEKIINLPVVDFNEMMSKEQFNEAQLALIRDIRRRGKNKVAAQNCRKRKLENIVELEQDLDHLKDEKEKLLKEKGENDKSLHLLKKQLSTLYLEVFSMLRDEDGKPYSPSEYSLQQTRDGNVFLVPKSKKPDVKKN
Chain of Keap1/Nrf2 (Q14145 whole entry): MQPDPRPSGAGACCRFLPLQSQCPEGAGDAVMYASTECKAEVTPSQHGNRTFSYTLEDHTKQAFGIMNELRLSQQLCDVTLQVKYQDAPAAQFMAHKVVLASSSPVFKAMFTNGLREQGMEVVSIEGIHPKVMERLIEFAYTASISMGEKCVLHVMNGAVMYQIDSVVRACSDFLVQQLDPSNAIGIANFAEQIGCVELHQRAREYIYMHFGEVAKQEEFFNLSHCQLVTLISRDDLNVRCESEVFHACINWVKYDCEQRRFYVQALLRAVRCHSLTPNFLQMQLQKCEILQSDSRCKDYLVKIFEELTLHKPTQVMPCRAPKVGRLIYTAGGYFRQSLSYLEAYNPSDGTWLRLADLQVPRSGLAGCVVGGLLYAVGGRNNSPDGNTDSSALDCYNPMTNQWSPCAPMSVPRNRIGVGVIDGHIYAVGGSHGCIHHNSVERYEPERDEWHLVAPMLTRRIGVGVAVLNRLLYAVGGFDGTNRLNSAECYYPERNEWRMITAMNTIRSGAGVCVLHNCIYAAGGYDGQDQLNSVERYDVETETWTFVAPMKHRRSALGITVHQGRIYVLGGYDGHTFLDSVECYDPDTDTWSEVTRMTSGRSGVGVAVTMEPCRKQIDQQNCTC

[14] = test system: HeLa; assay: HeLa cell cytotoxicity, dose response, cytotoxicity control, 24 h, cherry-picked samples (AID 504726); type: functional, cell-based; conditions: Homo sapiens;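 further: potency for cytotoxicity as loss of luminescence signal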
[15] = molecular target: T3, Beta Lactamase; assay: beta-lactamase reporter inhibitor potency, dose response, artefact control for TLR9-MyD88 binding inhibitor project, BLA reporter cells, FRET fluorescence (AID 588341); type: cell-based;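 further: cell based assay in CHO-K1 cells stably expressing beta-lactamase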
[16] = molecular target: T2, Insulin-degrading enzyme; assay: activators of recombinant IDE enzyme, dose response, counter-screen for IDE activator project, biochemical, fluorescence polarization (AID 588681)
[17] = molecular target: T4, Heat shock factor protein 1 (Mus musculus, UniProt P38532); assay: HSF1 potentiators in luciferase reporter cells, confirmation, cell-based, NIH3T3, luminescence, dose retest (AID 435004); type: functional;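 further: stress induced by proteasome inhibitor MG132 added 30 min after compound; luciferase reporter driven by HSF1 response element in NIH3T3 cells; actives raise luminescence as potentiators of the MG132 stress response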
T4 sequence (P38532 whole entry): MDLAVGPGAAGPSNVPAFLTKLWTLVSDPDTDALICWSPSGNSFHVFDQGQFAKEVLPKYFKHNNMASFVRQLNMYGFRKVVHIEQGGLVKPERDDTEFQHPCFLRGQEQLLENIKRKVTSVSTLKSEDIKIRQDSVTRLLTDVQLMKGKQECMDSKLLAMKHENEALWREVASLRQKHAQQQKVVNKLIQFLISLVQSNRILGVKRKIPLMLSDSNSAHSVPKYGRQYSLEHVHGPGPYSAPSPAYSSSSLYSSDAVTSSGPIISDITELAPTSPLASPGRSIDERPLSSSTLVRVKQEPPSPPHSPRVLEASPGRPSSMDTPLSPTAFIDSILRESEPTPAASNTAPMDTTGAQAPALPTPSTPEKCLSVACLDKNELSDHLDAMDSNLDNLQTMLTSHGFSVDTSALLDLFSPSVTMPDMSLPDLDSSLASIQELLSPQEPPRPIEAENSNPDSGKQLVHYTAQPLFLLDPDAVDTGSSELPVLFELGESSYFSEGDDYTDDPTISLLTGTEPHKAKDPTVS

[18] = test system: Jurkat; assay: SAR Analysis of small molecule inhibitors of […] specific antigen receptor-induced NF-kB activation in a Jurkat cell line using a luminescence assay - Set 3. [Related pubchem assays (depositor defined):AID435022, AID435025, AID465]; type: functional, cell-based; conditions: Homo sapiens
[19] = test system: HEK293; assay: cytotoxicity in HEK293T NF-kB-Luc cells, SAR follow-up, cytotoxicity control for NF-kB activator project, cell-based, resazurin fluorescence (AID 493251); type: functional; conditions: Homo sapiens
[20] = test system: HEK293; assay: SAR Analysis of small molecule inhibitors of B-cell specific antigen receptor-induced NF-kB activation in a HEK-293T cell line using a luminescence assay - Set 2. [Related pubchem assays (depositor defined):AID435022, AID435025, AID489021]; type: functional, cell-based; conditions: Homo sapiens
[21] = cytotoxicity in HMLE control line with eGFP shRNA, dose response, counter-screen for HMLE_sh_ECad selective toxicity project, cell-based, HMLE_sh_eGFP, luminescence (AID 463074); type: functional, Homo sapiens;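 further: HMLE human mammary epithelial cells expressing control shRNA against eGFP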
[22] = Luminescence Cell-Based Dose Retest to Confirm Inhibitors of Cancer Stem Cells. [Related pubchem assays (depositor defined):AID2717, AID2721]; type: functional; conditions: Homo sapiens
[23] = molecular target: Dual specificity protein phosphatase 3 (Homo sapiens, UniProt P51452); assay: SAR VHR1 Fluorescent Assay for In Vitro dose response studies Set 3. [Related pubchem assays (depositor defined):AID1654, AID1661, AID1878]; type: functional
Chain of Dual specificity protein phosphatase 3 (P51452 whole entry): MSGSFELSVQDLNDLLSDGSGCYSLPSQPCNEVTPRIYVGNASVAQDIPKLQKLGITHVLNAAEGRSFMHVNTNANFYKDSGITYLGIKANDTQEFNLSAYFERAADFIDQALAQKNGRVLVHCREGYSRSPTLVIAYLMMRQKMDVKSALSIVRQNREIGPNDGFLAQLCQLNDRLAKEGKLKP

[24] = test system: HEK293; assay: cells; conditions: Homo sapiens
[25] = test system: HEK293; assay: cells; conditions: Homo sapiens; remark: listed apart in the source

With `CCCC/N=C1\C(=O)N(C)c2cccc3c(O)c4ccccc4c1c23` the EC50 [1] was 21.4 µM (active), the IC50 [2] was 20.1 µM (inactive) and the AC50 [3] was 4.99 µM (active). For the same compound, the IC50 [4] was > 89.2 µM (inactive), the EC50 [5] was 35.4 µM (active) and the EC50 [6] was > 54.7 µM (inactive). The EC50 [7] was > 54.7 µM (inactive), the IC50 [8] was 14.3 µM (inactive) and the EC50 [9] was 6.81 µM (active). The AC50 [10] was 1.04 µM (active), the IC50 [11] was 11.9 µM (inactive) and the IC50 [12] was 4.28 µM (active). For the same compound, the AC50 [13] was 1.13 µM (active), the AC50 [14] was > 350 µM (inactive) and the IC50 [15] was 9.06 µM (active). For the same compound, the EC50 [16] was > 54.7 µM (inactive) and the EC50 [17] was 56.5 µM (active).
For `CC(C)(C)c1ccc(-c2noc(CCC(=O)NC3CCCC3)n2)cc1`, the IC50 [18] was 0.48 µM (active), the IC50 [19] was > 80 µM (inactive) and the IC50 [20] was 0.78 µM (active).
For `O=C(CSc1ccc(F)cc1)N1CCC(c2nc3ccccc3s2)CC1`, the AC50 [21] was 26.9 µM (active) and the AC50 [22] was 40.5 µM (active).
For `Cc1ccc(C(=O)NC(=S)Nc2ccc(Cl)c(-c3nc4ccccc4s3)c2)cc1`, the IC50 [23] was > 66 µM (inactive).
With `COc1ccc(N2C(=O)NC(NC(=O)C(C)(C)C)(C(F)(F)F)C2=O)cc1` (stereo not given) the EC50 [24] was > 59.7 µM (inactive) and the EC50 [25] was > 59.7 µM (inactive).
